# Square brackets hold non-standard residues; d marks the D form. Peptide text beside a SMILES is read from it. * marks the point of attachment. Alaψ(CH2NMeCH2CH2OH) = C[C@@H](CN(C)CCO)N*; Decanoyl(2R-Me) = CCCCCCCC[C@@H](C)C(=O)*; Cha = N[C@@H](CC1CCCCC1)C(=O)O; Aib = CC(C)(N)C(=O)O
# Legend:
# BxPC-3 = conditions: MTT assay; only when cultured under minimal glucose in the growth medium; cited from earlier work
# Description: (§1) Intriguingly, there exists a precedence for this observation: the recent discovery of the leucinostatin Y by Kawada’s group was also reported alongside a comparative […] (MTT) assay against the parent peptide leucinostatin A (1) on the human PDAC cell lines PANC-1, BxPC-3, PSN-1, and PK-8 [21]. […] On this basis, we opted to re-evaluate the cytotoxicity of both trichoderins (3) and (4) against BxPC-3 and ...
# PANC-1 = conditions: MTT assay; only when cultured under minimal glucose in the growth medium; cited from earlier work
# Description: as §1
# PSN-1 = conditions: MTT assay; only when cultured under minimal glucose in the growth medium; cited from earlier work
# Description: as §1
# PK-8 = conditions: MTT assay; only when cultured under minimal glucose in the growth medium; cited from earlier work
# Description: as §1
# [1] = system: DU-145 human prostate cancer cells; conditions: coculture model with prostate stromal cells (PrSC); cited from earlier work
# Description: (§2) Over the last decade, research in our group has focused on the synthesis and biological evaluation of aminolipopeptides as new generation anticancer therapeutics. They are structurally defined by the α,α-dialkylated amino acid 2-aminoisobutyric acid (Aib) and an acylated N-terminus. A subset of this family, containing the non-natural building block 2-amino-6-hydroxy-4-methyl-8-oxodecanoic acid (AHMOD), has provided two promising leads in leucinostatin A (1) and culicinin D (2).
# [2] = system: MDA-MB-468 human breast cancer cells; conditions: via inhibition of the mTOR signaling pathway; cited from earlier work
# Description: as §2
# BxPC-3 cells [3] = assay: Initial cytotoxicity assay (PrestoBlue and CyQUANT Direct Confirmation Assay), 25 mM glucose; assay type: cell-based, human; conditions: 3-day (72 h) incubation, RPMI-1640 with 25 mM glucose, up to highest concentration tested of 1 µM, both viability assays
# Procedure: The CyQUANT™ Direct Cell Proliferation Assay was subsequently performed by mixing the CyQUANT™ Direct nucleic acid stain, CyQUANT™ Direct background suppressor I, and PBS (pH 7.4) as per the vendor instructions, then adding 100 µL of this mixture into each well. The plate was returned into the incubator for a further 1 h, and the endpoint fluorescence bottom-read at the Ex/Em wavelength of 485/538 nm on the SpectraMax iD3 plate reader. Blank wells (medium only) and two negative controls—(1) cells + medium, (2) cells + medium + 0.3% v/v DMSO (equivalent to 1 µM peptide)—were set up in the plate for each experiment.
# PANC-1 cells [4] = assay: CyQUANT Direct cell proliferation assay, comparative cytotoxicity assay under 'low glucose'; assay type: cell-based, human; conditions: 24 h exposure
# Description: (§3) Endpoint fluorescence was quantified as described above.
# BxPC-3 cells [5] = assay: as above; assay type: cell-based, human; conditions: 24 h exposure
# Description: as §3
# PANC-1 cells [6] = conditions: 24 h exposure, medium with or without 5 mM glucose, up to 9 µM
# Procedure: (§4) Cells were seeded at a density of 25,000 cells/well (BxPC-3) and 30,000 cells/well (PANC-1) in Nunc MicroWell 96-Well Black Optical-Bottom Plates with Polymer Base (total volume: 100 µL). Cells were first incubated overnight at 37 °C, 5% CO2 to permit adherence, after which the medium in each well was aspirated, briefly washed once with 100 µL/well of PBS (pH 7.4) and replaced with 100 µL of either RPMI 1640 (BxPC-3, #11879020) or DMEM (PANC-1, #11966025) supplemented with or without 5 mM glucose to create the ‘normal glucose’ and ‘low glucose’ media, respectively. This 5 mM glucose concentration was selected to reflect the physiological concentration of glucose in plasma. Each well was then exposed to the peptides in duplicate at a concentration range of 50.8 pM to 1 µM (BxPC-3) or 457 pM to 9 µM (PANC-1) for 24 h (threefold serial dilution in the corresponding ‘normal glucose’ or ‘low glucose’ media, ten steps). Endpoint fluorescence was quantified as described above.
# (§5) Blank correction (wells containing medium only) was first performed on the raw fluorescence–concentration data from the plate reader. Cell viability was then calculated as a percentage by normalizing to the fluorescence of the wells containing the lowest drug concentration (50.8 pM for BxPC-3, 457 pM for PANC-1). The resulting data from three independent experiments (each in technical duplicate) was then plotted on GraphPad Prism 9 and analyzed using the built-in ‘[Inhibitor] vs. response—Variable slope (four parameters)’ equation.
# BxPC-3 cells [7] = conditions: 24 h exposure, medium with or without 5 mM glucose, up to 1 µM
# Procedure: as §4, §5
# PANC-1 cells [8] = assay: PrestoBlue cell viability assay, comparative cytotoxicity assay under 'low glucose'; assay type: cell-based, human; conditions: 24 h exposure
# Description: as §3
# BxPC-3 cells [9] = assay: as above; assay type: cell-based, human; conditions: 24 h exposure
# Description: as §3
# [10] = 'low glucose' DMEM (no glucose added), 457 pM to 9 µM, three independent experiments each in technical duplicate
# [11] = 'low glucose', area under viability-concentration curve, baseline y = 0, three independent experiments in duplicate
# [12] = 'low glucose', response (percent viability) at highest concentration 9 µM, three independent experiments in duplicate
# [13] = 'low glucose' RPMI 1640 (no glucose added), 50.8 pM to 1 µM, three independent experiments each in technical duplicate
# [14] = 'low glucose', response (percent viability) at highest concentration 1 µM, three independent experiments in duplicate
molecule,measurement,setting,value
leucinostatin A [(1)],Cytotoxicity against BxPC-3 (in words),BxPC-3,selectively cytotoxic
same,Cytotoxicity against PANC-1 (in words),PANC-1,selectively cytotoxic
same,Cytotoxicity against PSN-1 (in words),PSN-1,selectively cytotoxic
same,Cytotoxicity against PK-8 (in words),PK-8,selectively cytotoxic
same,Cytotoxicity against DU-145 (in words),[1],cytotoxic
culicinin D [(2)],Toxicity against MDA-MB-468 (in words),[2],selectively toxic
CCCCCCCC[C@@H](C)C(=O)N1CCC[C@H]1C(=O)N[C@@H](CC1CCCCC1)C(=O)NC(C)(C)C(=O)NC(C)(C)C(=O)N[C@H](C(=O)N[C@H](C(=O)NC(C)(C)C(=O)NC(C)(C)C(=O)N[C@@H](C)CN(C)CCO)C(C)C)[C@@H](C)CC [(4)] ({Decanoyl(2R-Me)}-P[Cha][Aib][Aib]IV[Aib][Aib]-{Alaψ(CH2NMeCH2CH2OH)}),Inhibition of proliferation of BxPC-3 cells (in words),BxPC-3 cells [3],only partially inhibited the proliferation
same,IC50,PANC-1 cells [4]; [10],1300 nM
same,"AUC, CyQUANT Direct, PANC-1",PANC-1 cells [4]; [11],39.6 ×10^−5
same,"Emax @ 9 µM, CyQUANT Direct, PANC-1",PANC-1 cells [4]; [12],29.2%
same,IC50,BxPC-3 cells [5]; [13],400 nM
same,"AUC, CyQUANT Direct, BxPC-3",BxPC-3 cells [5]; [11],5.4 ×10^−5
same,"Emax @ 1 µM, CyQUANT Direct, BxPC-3",BxPC-3 cells [5]; [14],21.0%
same,Cytotoxicity against PANC-1 under 'low glucose' vs 'normal glucose' (in words),PANC-1 cells [6],selective toxicity under the ‘low glucose’ condition
same,Cytotoxicity against BxPC-3 under 'low glucose' vs 'normal glucose' (in words),BxPC-3 cells [7],selective toxicity under the ‘low glucose’ condition
same,IC50,PANC-1 cells [8]; [10],500 nM
same,"AUC, PrestoBlue, PANC-1",PANC-1 cells [8]; [11],23.1 ×10^−5
same,"Emax @ 9 µM, PrestoBlue, PANC-1",PANC-1 cells [8]; [12],2.3%
same,IC50,BxPC-3 cells [9]; [13],400 nM
same,"AUC, PrestoBlue, BxPC-3",BxPC-3 cells [9]; [11],5.1 ×10^−5
same,"Emax @ 1 µM, PrestoBlue, BxPC-3",BxPC-3 cells [9]; [14],1.7%

# From article PMC9866366 (Pharmaceutics, 2023)
